In patent EP0915099A1, “Antiparallel oligopeptides and hydrophobically complementary oligopeptides, matrices containing them and use thereof in the purification and detection of subtypes of alpha interferon” (ALFA WASSERMANN S.p.A., priority 1997, dated 1999):

System: subtypes of Hu-IFNα
Assay: affinity of the peptides in solution and bound to solid supports (affinity chromatography)
Assay type: binding, human
Conditions: both in solution and bound to solid supports
Source text: Therefore they can be used, when bound to suitable matrices on solid supports, in affinity chromatography for the separation and purification of the subtype Hu-IFNα8. Moreover, when conveniently functionalized, they can be used for the specific detection of Hu-IFNα8 in analytical techniques like the detection of compounds splitted in SDS-PAGE and transferred on nitrocellulose sheets (SDS-PAGE-blotting) or the detection of compounds immobilized on solid supports (enzyme linked immuno sorbent assay or ELISA). Therefore the matrices on solid supports for the affinity chromatography to which the IFNα-AP, IFNω-AP, IFNα-IC and IFNω-IC oligopeptides are linked and the use thereof in the separation and purification of the Hu-IFNα8 protein are a further object of the invention.
Each of the peptides from number 1 to number 6, at the end of the synthesis, has been linked to a solid support useful for affinity chromatographies, preferably made by a polymeric resin based on acrylamide or agarose, and each matrix functionalized in this way has been packed on a chromatographic column on which, at a neutral pH, a mixture of Hu-IFNα having a specific activity between 1 e 100 x 10^5 international units for each milligram of total proteins (IU/mg) and with a Hu-IFNα concentration between 0.1 and 5 x 10^6 IU has been pressed through. […]

H-Gly-Phe-His-Asp-Phe-His-Ser-Asp-Asn-Phe-OH (H-GFHDFHSDNF-OH) [IFNω-AP]
affinity for subtypes of Hu-IFNα: only for some subtypes of Hu-IFNα, mainly for the subtype IFNα8

H-Gly-Ser-His-Asp-Phe-Cys-Ser-Asp-Asn-Leu-OH (H-GSHDFCSDNL-OH) [IFNα-AP]
affinity for subtypes of Hu-IFNα: only for some subtypes of Hu-IFNα, mainly for the subtype IFNα8
